# Laboratory results from patent US6893641B2, “Ganoderma lucidum spores for treatment of autoimmune diseases” (priority 1999, dated 2005).
# “Also recorded” adds a separate entry of the source. Where two headings read alike, the source gives them in different places. Marks after values point to notes of the source that are not given here.
# Experiments:
# [1] = test system: TA97; experiment: Ames test, Petri dish mixing method, TA97; type: cell-based; conditions: TA97 −S9, positive control, dose not given
# Method: (§1) Test bacteria (TA97, TA98, TA100, TA102) were supplied by the Bureau of Food Inspection, Department of Health in Beijing. […] Using the Petri dish mixing method, two independent tests were carried out.
# [2] = test system: TA98; experiment: Ames test, Petri dish mixing method, TA98; type: cell-based; conditions: TA98 −S9, positive control, dose not given
# Method: as §1
# [3] = test system: NIH mice; conditions: for No. of micronuclei: 10000 cells
# Method: Test material: The GLSs were brown powders. After going through a 100 mesh sieve, 120 g of the samples were mixed with 300 mL distilled water (to give a concentration of 40 g/dL) and stirred for 15 min in a stirrer at 7000 rpm. They were then bottled, underwent disinfection and antiseptic treatments, and 1 mL of a pasty liquid was obtained, which was about 0.4 g of the samples. Direct gavage was carried out two times per day.
# Mouse Bone Marrow Micronucleus Test:
# Seventy (70) NIH mice with body weights of 20-23 g were used in this test. The mice were divided into 7 groups and testing was carried out according to the methods of the Toxicological Evaluation Procedures for Food Safety. Gavage was carried out twice, and 6 hrs after the second force feeding, the mice were sacrificed, and both of the femurs were taken out for the preparation of a biopsy, staining and examination under a microscope.
# [4] = test system: NIH mice; experiment: Mouse sperm deformation test; type: in vivo; conditions: 0.04 g/kg, abdominal injections
# From the text: 3. Sperm Deformation Test
# Twenty five (25) NIH mice with body weights of 18-22 g, randomly divided into 5 groups and continuously force fed for 5 days (the Endoxan positive group received abdominal injections), were used in this test. Thirty five (35) days later, the animals were sacrificed and both testicles were taken out for the standard biopsy preparation and staining. Five thousand (5000) whole sperm from each group were examined under an oil immersion lens and the sperm deformation percentage was calculated.
# [5] = test system: TA100; experiment: Ames test, Petri dish mixing method, TA100; type: cell-based; conditions: TA100 −S9, positive control, dose not given
# Method: as §1
# [6] = test system: SLE mice; experiment: T-lymphocyte populations in SLE mice under different treatments; type: in vivo
# Method: Spleens, lymph nodes, and thymus glands were collected under sterile conditions from the DBA/2 or BALB/C mice. Lymphocytes were then isolated and washed with Hanks solution 3 times. Cells were stained with 0.5% trypan blue and examined for viability. The lymphocytes were then adjusted to the desired concentrations.
# Kidney tissues were sampled and undergone morphologic analyses under light scope.
# Statistical analyses and t test, were carried out using SPAAS 10.0 computer software.
# [7] = blood at 168 hours after the first dosing, daily oral, GLSs 0.8 g/kg/day, prednisolone solution 50 mL/kg/day
smiles,measurement,setting,value
CCN(CC)CCCC(C)Nc1c2ccc(Cl)cc2nc2ccc(OC)cc12 (centres unmarked) [Atabrine],colonies due to reverse mutation,[1],>1500
same,colonies due to reverse mutation,[2],>1433
O=P1(N(CCCl)CCCl)NCCCO1 (centres unmarked) [Endoxan],No. of micronuclei,[3]; listed as printed '(0.06)' g/kg under Endoxan,249
same,Percentage of micronuclei,"[3]; listed as printed '(0.06)' g/kg under Endoxan, p < 0.001 vs other groups",24.9** 0/00
same,Percentage of micronuclei,[3]; listed as printed '^ Endoxan',1.2 0/00
same,No. of micronuclei,[3]; listed as printed '^ Endoxan',12
same,No of deformed sperm (count),[4]; 5000 sperm,98
same,Percentage deformation,[4]; p < 0.01 vs other groups,72.80**
[N-]=[N+]=[N-] [Sodium azide],colonies due to reverse mutation,[5],>1500
C[C@]12C=CC(=O)C=C1CC[C@@H]1[C@@H]2[C@@H](O)C[C@@]2(C)[C@H]1CC[C@]2(O)C(=O)CO [prednisolone],"T %, Th %, Ts % and Th/Ts ratio compared with control groups",[6]; 168 hours after the first dosing,much better than those in the SLE control group; also recorded: improved the T cell counts in similar degree as those of GLSs
same,T(%),[6]; [7],51.30 ± 4.23%
same,Th (%),[6]; [7],31.44 ± 3.21%
same,Th/Ts,[6]; [7],1.12 ± 0.31
same,Ts (%),[6]; [7],28.43 ± 3.12%
